Results as given in US20240269139A1, “COMPOUNDS FOR TARGETED PROTEIN DEGRADATION OF KINASES” (DANA-FARBER CANCER INSTITUTE, INC., priority 2020, published 2024).
Read-outs that look alike come from different tables or passages of the source.

Tests used:
Assay type in all cases: cell-based
[1] = target: T1, protein kinases (human kinome) (Homo sapiens, UniProt Q9UEE5); details: STK17A Q9UEE5
T1 sequence (Q9UEE5 1-414): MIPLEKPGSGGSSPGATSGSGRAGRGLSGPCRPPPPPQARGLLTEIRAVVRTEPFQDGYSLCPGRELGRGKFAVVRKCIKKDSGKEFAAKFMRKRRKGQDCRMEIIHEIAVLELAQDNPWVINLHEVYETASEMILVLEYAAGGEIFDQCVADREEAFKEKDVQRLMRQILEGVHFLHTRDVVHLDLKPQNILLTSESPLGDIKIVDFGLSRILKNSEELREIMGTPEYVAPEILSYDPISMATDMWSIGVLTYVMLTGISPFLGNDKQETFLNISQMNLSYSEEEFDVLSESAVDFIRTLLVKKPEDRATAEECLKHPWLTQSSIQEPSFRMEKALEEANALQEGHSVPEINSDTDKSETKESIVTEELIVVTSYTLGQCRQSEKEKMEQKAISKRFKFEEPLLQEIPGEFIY

[2] = target: protein kinases (human kinome) (Homo sapiens, UniProt Q16584)
[3] = target: protein kinases (human kinome) (Homo sapiens, UniProt P53667); details: LIMK1 (P53667-1)
[4] = target: T2, protein kinases (human kinome) (Homo sapiens, UniProt Q8TAS1)
T2 sequence (Q8TAS1 1-419): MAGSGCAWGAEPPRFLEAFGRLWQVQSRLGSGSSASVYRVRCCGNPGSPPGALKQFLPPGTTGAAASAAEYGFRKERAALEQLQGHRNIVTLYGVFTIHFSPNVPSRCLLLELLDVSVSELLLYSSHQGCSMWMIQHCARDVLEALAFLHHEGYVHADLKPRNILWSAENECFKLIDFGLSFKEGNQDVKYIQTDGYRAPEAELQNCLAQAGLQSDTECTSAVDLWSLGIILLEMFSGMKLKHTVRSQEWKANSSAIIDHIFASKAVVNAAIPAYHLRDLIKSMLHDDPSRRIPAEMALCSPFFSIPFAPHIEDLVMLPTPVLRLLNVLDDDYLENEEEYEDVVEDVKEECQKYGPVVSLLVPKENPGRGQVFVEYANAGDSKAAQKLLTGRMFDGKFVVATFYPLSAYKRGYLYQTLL

[5] = target: protein kinases (human kinome) (Homo sapiens, UniProt Q14004); details: for logFC CDK13: Accession Q14004-1
[6] = target: protein kinases (human kinome) (Homo sapiens, UniProt Q13233)
[7] = target: protein kinases (human kinome) (Homo sapiens, UniProt O43683); details: for logFC: BUB1 (O43683), experiment wp076; for logFC BUB1 (O43683): Experiment wp076, direction down
[8] = target: protein kinases (human kinome) (Homo sapiens, UniProt Q15118); details: PDK1 Q15118
[9] = target: protein kinases (human kinome) (Homo sapiens, UniProt P07947); details: YES1 (P07947)
[10] = Accession Q13233, experiment wp076, direction down
[11] = MAP3K1 (Q13233), experiment wp076
[12] = Accession Q8TAS1, experiment wp076, direction down
[13] = UHMK1 (Q8TAS1), experiment wp076
[14] = Accession Q13233, experiment wp056, direction down
[15] = Accession Q13233, experiment wp107, direction down
[16] = MAP3K1 (Q13233), experiment wp056
[17] = MAP3K1 (Q13233), experiment wp107

Chain of protein kinases (human kinome) (Homo sapiens, UniProt P07947) (P07947 whole entry): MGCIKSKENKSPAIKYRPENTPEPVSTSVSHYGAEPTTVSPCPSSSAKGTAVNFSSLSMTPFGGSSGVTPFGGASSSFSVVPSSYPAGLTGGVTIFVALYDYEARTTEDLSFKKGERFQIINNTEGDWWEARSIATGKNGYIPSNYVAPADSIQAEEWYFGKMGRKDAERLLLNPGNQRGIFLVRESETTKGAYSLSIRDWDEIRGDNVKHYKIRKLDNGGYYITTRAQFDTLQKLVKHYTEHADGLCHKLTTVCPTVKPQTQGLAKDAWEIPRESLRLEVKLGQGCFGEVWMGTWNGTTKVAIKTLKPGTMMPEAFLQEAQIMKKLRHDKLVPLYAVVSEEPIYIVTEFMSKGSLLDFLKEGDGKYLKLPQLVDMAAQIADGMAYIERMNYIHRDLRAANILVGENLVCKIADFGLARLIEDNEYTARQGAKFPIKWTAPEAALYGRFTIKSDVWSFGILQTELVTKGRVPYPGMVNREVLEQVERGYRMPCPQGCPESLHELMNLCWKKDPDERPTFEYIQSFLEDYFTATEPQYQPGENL
Chain of protein kinases (human kinome) (Homo sapiens, UniProt Q14004) (Q14004 whole entry): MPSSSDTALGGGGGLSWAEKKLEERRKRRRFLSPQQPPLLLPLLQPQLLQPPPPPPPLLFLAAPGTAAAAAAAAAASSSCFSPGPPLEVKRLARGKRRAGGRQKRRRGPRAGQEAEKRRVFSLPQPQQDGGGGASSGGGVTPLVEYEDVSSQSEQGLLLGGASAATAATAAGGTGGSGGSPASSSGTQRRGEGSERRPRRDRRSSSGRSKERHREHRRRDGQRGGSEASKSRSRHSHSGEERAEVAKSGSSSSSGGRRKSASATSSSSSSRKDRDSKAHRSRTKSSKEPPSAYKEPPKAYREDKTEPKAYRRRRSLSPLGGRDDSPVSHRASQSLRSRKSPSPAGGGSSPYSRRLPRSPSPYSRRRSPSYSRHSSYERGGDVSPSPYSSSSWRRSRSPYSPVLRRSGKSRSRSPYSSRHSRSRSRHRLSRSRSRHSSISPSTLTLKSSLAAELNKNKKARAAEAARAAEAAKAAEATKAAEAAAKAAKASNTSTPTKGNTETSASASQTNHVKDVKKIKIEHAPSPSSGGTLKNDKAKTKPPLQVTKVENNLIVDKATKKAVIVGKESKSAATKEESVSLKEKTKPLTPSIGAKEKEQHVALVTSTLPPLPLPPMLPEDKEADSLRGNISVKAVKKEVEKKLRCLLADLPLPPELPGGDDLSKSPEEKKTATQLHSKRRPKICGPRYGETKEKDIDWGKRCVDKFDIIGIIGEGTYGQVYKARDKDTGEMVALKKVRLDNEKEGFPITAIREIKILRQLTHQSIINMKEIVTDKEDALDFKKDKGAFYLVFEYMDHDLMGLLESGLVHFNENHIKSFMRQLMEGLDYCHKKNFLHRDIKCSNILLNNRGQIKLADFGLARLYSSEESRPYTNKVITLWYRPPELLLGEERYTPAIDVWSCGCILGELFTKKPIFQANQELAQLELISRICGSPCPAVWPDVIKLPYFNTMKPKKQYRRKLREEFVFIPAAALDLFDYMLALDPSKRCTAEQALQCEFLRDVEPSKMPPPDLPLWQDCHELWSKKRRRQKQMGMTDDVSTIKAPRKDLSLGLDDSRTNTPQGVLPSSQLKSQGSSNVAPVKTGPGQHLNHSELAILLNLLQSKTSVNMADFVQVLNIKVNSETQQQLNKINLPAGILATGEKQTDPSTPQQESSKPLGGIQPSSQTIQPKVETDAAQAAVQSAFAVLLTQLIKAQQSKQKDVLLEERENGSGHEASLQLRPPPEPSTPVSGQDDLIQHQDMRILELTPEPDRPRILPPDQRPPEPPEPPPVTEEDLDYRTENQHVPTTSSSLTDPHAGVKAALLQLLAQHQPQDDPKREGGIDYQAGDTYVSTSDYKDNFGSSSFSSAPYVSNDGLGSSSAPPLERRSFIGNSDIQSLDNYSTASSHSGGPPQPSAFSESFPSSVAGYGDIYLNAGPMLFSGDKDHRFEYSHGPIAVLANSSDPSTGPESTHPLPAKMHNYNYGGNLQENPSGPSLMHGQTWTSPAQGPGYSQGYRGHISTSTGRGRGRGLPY
Chain of protein kinases (human kinome) (Homo sapiens, UniProt O43683) (O43683 whole entry): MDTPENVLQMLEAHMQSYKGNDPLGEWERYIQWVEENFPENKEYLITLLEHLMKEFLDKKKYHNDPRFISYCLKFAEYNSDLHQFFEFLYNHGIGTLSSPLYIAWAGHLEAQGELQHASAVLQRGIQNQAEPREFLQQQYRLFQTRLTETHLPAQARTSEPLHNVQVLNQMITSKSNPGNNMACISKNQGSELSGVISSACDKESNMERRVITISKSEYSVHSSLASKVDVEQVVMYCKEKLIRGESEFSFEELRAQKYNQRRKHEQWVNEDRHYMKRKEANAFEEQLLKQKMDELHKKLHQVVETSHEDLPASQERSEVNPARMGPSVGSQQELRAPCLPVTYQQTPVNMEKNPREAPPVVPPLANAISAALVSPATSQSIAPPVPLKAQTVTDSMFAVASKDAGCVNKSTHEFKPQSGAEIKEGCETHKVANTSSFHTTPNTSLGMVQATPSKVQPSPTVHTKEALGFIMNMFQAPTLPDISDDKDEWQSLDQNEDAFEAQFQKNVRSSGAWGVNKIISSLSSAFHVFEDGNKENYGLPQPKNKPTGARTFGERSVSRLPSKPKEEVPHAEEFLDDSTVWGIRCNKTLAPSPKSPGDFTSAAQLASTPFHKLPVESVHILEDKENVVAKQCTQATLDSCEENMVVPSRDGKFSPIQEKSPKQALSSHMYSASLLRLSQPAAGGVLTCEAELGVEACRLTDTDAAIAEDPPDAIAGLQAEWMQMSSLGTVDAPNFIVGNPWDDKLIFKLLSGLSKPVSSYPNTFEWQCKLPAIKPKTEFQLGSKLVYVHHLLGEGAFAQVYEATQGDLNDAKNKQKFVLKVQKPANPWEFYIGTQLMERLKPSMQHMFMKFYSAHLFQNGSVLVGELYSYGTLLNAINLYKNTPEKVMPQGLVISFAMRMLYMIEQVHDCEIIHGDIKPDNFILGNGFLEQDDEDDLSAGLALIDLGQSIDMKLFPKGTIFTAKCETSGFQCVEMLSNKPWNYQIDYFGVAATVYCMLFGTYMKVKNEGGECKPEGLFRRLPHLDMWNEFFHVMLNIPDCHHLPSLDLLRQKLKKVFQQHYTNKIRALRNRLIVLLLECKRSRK
Chain of protein kinases (human kinome) (Homo sapiens, UniProt Q13233) (Q13233 whole entry): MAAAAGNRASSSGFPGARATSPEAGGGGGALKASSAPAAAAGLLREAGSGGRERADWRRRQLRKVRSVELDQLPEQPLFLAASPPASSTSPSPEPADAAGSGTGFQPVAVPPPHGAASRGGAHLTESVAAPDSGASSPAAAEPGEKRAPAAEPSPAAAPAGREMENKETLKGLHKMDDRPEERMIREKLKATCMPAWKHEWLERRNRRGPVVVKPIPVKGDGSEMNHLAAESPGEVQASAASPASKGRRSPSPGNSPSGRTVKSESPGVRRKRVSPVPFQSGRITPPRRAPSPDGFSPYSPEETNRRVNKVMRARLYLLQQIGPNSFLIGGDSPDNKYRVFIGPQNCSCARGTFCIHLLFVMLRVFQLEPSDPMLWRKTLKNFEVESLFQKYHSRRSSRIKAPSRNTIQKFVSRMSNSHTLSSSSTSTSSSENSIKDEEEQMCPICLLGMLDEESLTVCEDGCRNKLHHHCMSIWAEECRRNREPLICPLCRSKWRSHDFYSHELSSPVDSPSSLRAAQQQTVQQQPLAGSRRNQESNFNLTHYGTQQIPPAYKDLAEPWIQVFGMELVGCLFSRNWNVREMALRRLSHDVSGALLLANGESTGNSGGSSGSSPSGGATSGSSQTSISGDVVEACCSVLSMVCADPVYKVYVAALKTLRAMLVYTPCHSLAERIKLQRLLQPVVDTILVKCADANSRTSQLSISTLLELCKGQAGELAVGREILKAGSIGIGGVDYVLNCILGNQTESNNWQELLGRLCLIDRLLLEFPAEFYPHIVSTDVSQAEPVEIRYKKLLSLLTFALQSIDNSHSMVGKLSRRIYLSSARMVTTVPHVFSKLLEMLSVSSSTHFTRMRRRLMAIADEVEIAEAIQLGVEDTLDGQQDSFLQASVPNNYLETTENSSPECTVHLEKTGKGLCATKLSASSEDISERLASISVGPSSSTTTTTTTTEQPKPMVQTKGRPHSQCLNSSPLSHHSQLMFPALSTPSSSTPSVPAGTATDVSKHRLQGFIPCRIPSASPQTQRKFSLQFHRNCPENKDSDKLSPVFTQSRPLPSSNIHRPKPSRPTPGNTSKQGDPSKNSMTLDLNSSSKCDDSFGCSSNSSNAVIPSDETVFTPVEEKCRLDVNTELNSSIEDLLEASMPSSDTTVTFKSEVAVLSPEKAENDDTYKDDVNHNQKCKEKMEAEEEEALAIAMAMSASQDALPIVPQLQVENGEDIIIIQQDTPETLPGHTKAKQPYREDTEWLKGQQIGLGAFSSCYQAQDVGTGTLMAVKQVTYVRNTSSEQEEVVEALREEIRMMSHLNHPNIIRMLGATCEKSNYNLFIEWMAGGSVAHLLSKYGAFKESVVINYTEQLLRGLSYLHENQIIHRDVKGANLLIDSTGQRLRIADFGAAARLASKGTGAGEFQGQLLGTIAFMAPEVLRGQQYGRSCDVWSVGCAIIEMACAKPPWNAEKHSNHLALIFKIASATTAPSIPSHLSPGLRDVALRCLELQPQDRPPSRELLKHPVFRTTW
Chain of protein kinases (human kinome) (Homo sapiens, UniProt Q15118) (Q15118 29-436): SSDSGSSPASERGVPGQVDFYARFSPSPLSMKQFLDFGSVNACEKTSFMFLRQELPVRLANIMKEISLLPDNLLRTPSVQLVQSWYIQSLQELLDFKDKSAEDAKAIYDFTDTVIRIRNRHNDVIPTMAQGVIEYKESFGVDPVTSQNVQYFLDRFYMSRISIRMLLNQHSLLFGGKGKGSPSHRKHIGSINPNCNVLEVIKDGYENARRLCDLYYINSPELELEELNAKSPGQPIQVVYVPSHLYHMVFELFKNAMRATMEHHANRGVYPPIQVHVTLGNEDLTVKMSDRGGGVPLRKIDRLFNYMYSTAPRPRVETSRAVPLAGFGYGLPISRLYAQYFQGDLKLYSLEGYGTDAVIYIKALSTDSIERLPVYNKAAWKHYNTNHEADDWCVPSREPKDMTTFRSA

O=C(COc1cccc2c1C(=O)N(C1CCC(=O)NC1=O)C2=O)NCCCCCCCN1CCc2cc(Nc3ncc(C4CC4)c(NCCCNC(=O)C4CCC4)n3)ccc2C1 (centres unmarked) [BSJ.04.178]
logFC ([1]; experiment wp134): −0.7107
logFC STK17A ([1]; experiment wp134): −0.7107

Cc1ncsc1-c1ccc([C@H](C)NC(=O)[C@@H]2C[C@@H](O)CN2C(=O)[C@@H](NC(=O)CCCCCN2CCc3cc(Nc4ncc(C5CC5)c(NCCCNC(=O)C5CCC5)n4)ccc3C2)C(C)(C)C)cc1 [BSJ.05.026]
logFC ([1]; experiment wp195): −0.5209
logFC STK17A ([1]; experiment wp195): −0.5209

CS(=O)(=O)Nc1cccc(-c2csc3cnc(Nc4ccc(N5CCN(CCCCCOc6cccc7c6C(=O)N(C6CCC(=O)NC6=O)C7=O)CC5)cc4)nc23)c1 (centres unmarked) [DB0614, N-(3-(2-((4-(4-(5-((2-(2,6-Dioxopiperidin-3-yl)-1,3-dioxoisoindolin-4-yl)oxy)pentyl)piperazin-1-yl)phenyl)amino)thieno[3,2-d]pyrimidin-7-yl)phenyl)methanesulfonamide]
logFC MAP3K11 (Q16584) ([2]; experiment wp117): −0.7291
logFC ([1]; experiment wp045): −1.128
logFC STK17A ([1]; experiment wp045): −1.128
logFC ([1]; experiment wp117): −0.969
logFC STK17A ([1]; experiment wp117): −0.969

Cc1ccc(NC(=O)c2cccc(C(F)(F)F)c2)cc1N1Cc2cnc(Nc3ccc(N4CCN(CCCCC(=O)N[C@H](C(=O)N5C[C@H](O)C[C@H]5C(=O)N[C@@H](C)c5ccc(-c6scnc6C)cc5)C(C)(C)C)CC4)nc3)nc2N(C)C1=O [DB1113]
logFC LIMK1 ([3]; direction down, experiment wp168): −1.144
logFC LIMK1 ([3]; experiment wp168, down): −1.144

Cc1ncsc1-c1ccc([C@H](C)NC(=O)[C@@H]2C[C@@H](O)CN2C(=O)[C@@H](NC(=O)CCOCCOCCN2CCN(c3ccc(Nc4ncc(Cl)c(Nc5ccccc5S(=O)(=O)C(C)C)n4)cc3)CC2)C(C)(C)C)cc1 [FMF.06.098.1]
logFC UHMK1 ([4]; Accession Q8TAS1, experiment wp108, direction down): −0.3878
logFC UHMK1 ([4]; UHMK1 (Q8TAS1), experiment wp108): −0.3878
logFC CDK13 ([5]; experiment wp108): −0.3664
logFC CDK13 ([5]; experiment wp131): −0.4981
logFC CDK13 (Q14004-1) ([5]; Experiment wp108): −0.3664
logFC CDK13 (Q14004-1) ([5]; experiment wp131): −0.4981

C[C@@H]1C[C@@H](O)c2ncnc(N3CCN(C(=O)[C@H](CNCCCCCCCCCCc4cccc5c4C(=O)N(C4CCC(=O)NC4=O)C5=O)c4ccc(Cl)cc4)CC3)c21 (some centres unmarked) [INY.03.041.01]
logFC ([1]; experiment wp118): −0.4361
logFC STK17A ([1]; experiment wp118): −0.4361
logFC STK17A ([1]; experiment wp135, 8 hr): −0.497

Cc1cnc(Nc2ccc(N3CCN(CCCCCCC(=O)N[C@H](C(=O)N4C[C@H](O)C[C@H]4C(=O)N[C@@H](C)c4ccc(-c5scnc5C)cc4)C(C)(C)C)CC3)cc2)nc1Nc1cccc(S(=O)(=O)NC(C)(C)C)c1 [JWG.123]
logFC ([1]; experiment wp195): −0.6451
logFC STK17A ([1]; experiment wp195): −0.6451

CCc1cnn2c(N(Cc3ccc(N)nc3)C(=O)CCOCCOCCOCCNC(=O)CNc3cccc4c3C(=O)N(C3CCC(=O)NC3=O)C4=O)cc(N3CCCC[C@H]3CCO)nc12 (some centres unmarked) [MFH.5.115.2]
logFC MAP3K1 [6, 10]: −0.3528
logFC MAP3K1 [6, 11]: −0.3528
logFC [7]: −0.5159
logFC BUB1 (O43683) [7]: −0.5159
logFC ([1]; experiment wp076): −0.6277
logFC STK17A ([1]; experiment wp076): −0.6277
logFC UHMK1 [4, 12]: −0.8774
logFC UHMK1 [4, 13]: −0.8774

O=C1CCC(N2C(=O)c3cccc(NCCCCCCCCN4CCC(NC(=O)c5[nH]ncc5NC(=O)c5c(Cl)cccc5Cl)CC4)c3C2=O)C(=O)N1 (centres unmarked) [MFH.5.126.1]
logFC MAP3K1 [6, 10]: −0.5947
logFC MAP3K1 [6, 11]: −0.5947
logFC [7]: −0.9248
logFC BUB1 (O43683) [7]: −0.9248
logFC ([1]; experiment wp076): −0.8984
logFC STK17A ([1]; experiment wp076): −0.8984
logFC UHMK1 [4, 12]: −0.4789
logFC UHMK1 [4, 13]: −0.4789
logFC CDK13 ([5]; experiment wp076): −0.4846
logFC CDK13 (Q14004-1) ([5]; experiment wp076): −0.4846

CS(=O)(=O)Nc1cccc(-c2csc3cnc(Nc4ccc(N5CCN(CCOCCOCCOc6cccc7c6C(=O)N(C6CCC(=O)NC6=O)C7=O)CC5)cc4)nc23)c1 (centres unmarked) [RSS0628]
logFC ([1]; experiment wp045): −1.48
logFC STK17A ([1]; experiment wp045): −1.48

Cc1ncsc1-c1ccc([C@H](C)NC(=O)[C@@H]2C[C@@H](O)CN2C(=O)[C@@H](NC(=O)CCCCCN2CCN(c3ccc(Nc4ncc5scc(-c6cccc(NS(C)(=O)=O)c6)c5n4)cc3)CC2)C(C)(C)C)cc1 [RSS0680, (2S,4R)-1-((S)-3,3-Dimethyl-2-(6-(4-(4-((7-(3-(methylsulfonamido)phenyl)thieno[3,2-d]pyrimidin-2-yl)amino)phenyl)piperazin-1-yl)hexanamido)butanoyl)-4-hydroxy-N—((S)-1-(4-(4-methylthiazol-5yl)phenyl)ethyl)pyrrolidine-2-carboxamide]
logFC ([1]; experiment wp080): −1.118
logFC STK17A ([1]; experiment wp080): −1.118
logFC ([1]; experiment wp117): −1.379
logFC STK17A ([1]; experiment wp117): −1.379

Nc1ncnc2c1c(-c1ccc(Oc3ccccc3)cc1)nn2[C@H]1CC[C@H](N2CCN(CCOCCNC(=O)CNc3cccc4c3C(=O)N(C3CCC(=O)NC3=O)C4=O)CC2)CC1 (some centres unmarked) [SB1.G.181]
logFC LIMK1 ([3]; direction down, experiment wp071): −0.686
logFC LIMK1 ([3]; experiment wp071, down): −0.686

Cc1ccc(C(=O)Nc2ccc(CN3CCN(CCCOCCOCCOCCNC(=O)COc4cccc5c4C(=O)N(C4CCC(=O)NC4=O)C5=O)CC3)c(C(F)(F)F)c2)cc1C#Cc1cnc2cccnn12 (centres unmarked) [SB1.G.187]
logFC MAP3K1 [6, 14]: −0.7809
logFC MAP3K1 ([6]; Accession Q13233, experiment wp103, direction down): −0.5815
logFC MAP3K1 [6, 15]: −0.6693
logFC MAP3K1 [6, 16]: −0.7809
logFC MAP3K1 ([6]; MAP3K1 (Q13233), experiment wp103): −0.5815
logFC MAP3K1 [6, 17]: −0.6693
logFC ([8]; experiment wp056): −0.4134
logFC PDK1 ([8]; experiment wp056): −0.4134
logFC ([9]; experiment wp172): −0.5324
logFC ([9]; experiment wp172, direction down): −0.5324

Cn1c(=O)c(-c2c(Cl)cccc2Cl)cc2cnc(Nc3ccc(OCCNC(=O)CCCCCCNC(=O)COc4cccc5c4C(=O)N(C4CCC(=O)NC4=O)C5=O)cc3)nc21 (centres unmarked) [SB1.G.192.1]
logFC ([8]; experiment wp081): −0.3388
logFC PDK1 ([8]; experiment wp081): −0.3388
logFC ([9]; experiment wp131): −1.244
logFC ([9]; experiment wp131, direction down): −1.244

CC(C)S(=O)(=O)c1ccccc1Nc1nc(Nc2ccc(N3CCN(CCOCCNC(=O)CNc4cccc5c4C(=O)N(C4CCC(=O)NC4=O)C5=O)CC3)cc2)ncc1Cl (centres unmarked) [SK-3-91]
BUB1 degradation ([7]; MOLT-4 and MM.1S cell lines): degraded

CC(C)S(=O)(=O)c1ccccc1Nc1nc(Nc2ccc(N3CCN(CCOCCNC(=O)CNc4ccc5c(c4)C(=O)N(C4CCC(=O)NC4=O)C5=O)CC3)cc2)ncc1Cl (centres unmarked) [SK.3.93]
logFC CDK13 ([5]; experiment wp016): −0.5636
logFC CDK13 (Q14004-1) ([5]; experiment wp016): −0.5636

NC(=O)c1c(F)cccc1Nc1nc(Nc2ccc(S(=O)(=O)NCCOCCOCCOCCOCCNc3cccc4c3C(=O)N(C3CCC(=O)NC3=O)C4=O)cc2)ncc1Br (centres unmarked) [TMX.02.138]
logFC MAP3K11 (Q16584) ([2]; experiment wp146): −0.9241

Cc1cc(Nc2ncc(Br)c(Nc3cccc(F)c3C(N)=O)n2)ccc1S(=O)(=O)NCCOCCOCCOCCOCCNc1cccc2c1C(=O)N(C1CCC(=O)NC1=O)C2=O (centres unmarked) [TMX.02.174]
logFC MAP3K11 (Q16584) ([2]; experiment wp146): −1.874

Nc1ncc(-c2ccc(S(=O)(=O)N(CCCNC(=O)CCOCCOCCOCCOCCOCCNc3cccc4c3C(=O)N(C3CCC(=O)NC3=O)C4=O)C3CC3)cc2)cc1-c1ccc2c(c1)CCNC2=O (centres unmarked) [WH.10417.099]
logFC MAP3K1 [6, 14]: −0.5034
logFC MAP3K1 [6, 15]: −0.4673
logFC MAP3K1 [6, 16]: −0.5034
logFC MAP3K1 [6, 17]: −0.4673
